Measured values: patent US11154057B2, “Use of nootkatone to treat mosquito infestations” (EVOLVA SA, priority 2016, dated 2021)
Read-outs that look alike come from different tables or passages of the source.

Tests used:
Format in all cases: in vivo
Aedes aegypti larvae [1] = system: Aedes aegypti larvae
From the text: This example describes a laboratory bioassay in which groups of mosquito larvae were exposed to a nootkatone-containing composition to determine larval susceptibility to nootkatone.
One milliliter of a solution of nootkatone in ethanol was applied directly to 100 milliliters of water containing larvae, using a micropipette. One treatment condition used 3% (v/v) nootkatone in ethanol, and a second treatment condition used 1% (v/v) nootkatone in ethanol, for final concentrations of 0.03% or 0.01% (v/v), respectively. One milliliter of pure ethanol was used as a control. Four replicates of 25 larvae were tested per treatment. Clean, glass 600 mL laboratory beakers were used as test containers such that the surface area of the water to be treated was 54 cm^2.
(§1) Larvae were observed after 24 hours post-introduction to the test containers.
(§2) Readings were discontinued if treated mortality reached 100%, or control mortality exceeded 20%.

Aedes aegypti eggs = assay: Prevention of mosquito egg hatching (Example No. 5); conditions: 0.03% nootkatone/1% ethanol, 24 hours
Protocol: Mosquito eggs from Aedes aegypti and Anopheles quadrimaculatus mosquitoes were obtained from a commercial source.
In a second experiment, Aedes aegypti eggs were divided into cohorts of ˜100 eggs. Each cohort was placed inside a clean 9 cm Petri dish after receiving mock treatment or a true treatment with nootkatone (see “Treatments”), after which the Petri dish was covered with its lid and held at 30-35° C. to allow hatching. Hatching was scored as the number of live larvae after 24 hours. Four cohorts were tested per treatment.
An aliquot of 0.2 mL of a 3% solution (w/v) of nootkatone in 100% ethanol was added to 20 mL of sterile MilliQ water in treatment Petri dishes to obtain a final concentration of 0.03% nootkatone/1% ethanol. Control beakers received 0.2 mL of 100% ethanol, to obtain a final concentration of 1% ethanol.
The rate of egg hatching was calculated for each treatment and control egg cohort, and the results of at least 4 cohorts were averaged, and used to calculate the relative hatch rate for treatments versus controls (see FIG. 11). […] Therefore, nootkatone treatment of mosquito breeding sites will effectively reduce mosquito populations by preventing hatching and killing hatched larvae.

mosquito larvae = system: mosquito larvae
Protocol: In this example, concentration titration was performed to determine effective concentrations of nootkatone in nootkatone-containing protective compositions that maintain larvicidal activity, and to determine the effect of surface area on larvicidal activity of nootkatone-containing compositions.
One milliliter of a solution of nootkatone in ethanol was applied directly to 200 milliliters of water containing larvae, using a micropipette. One treatment condition used 3% (v/v) nootkatone in ethanol, a second treatment condition used 1% (v/v) nootkatone in ethanol, and a third treatment used 0.5% (v/v) nootkatone in ethanol, for final concentrations of 30, 10, or 5 mg of nootkatone added per container. One milliliter of pure ethanol was used as a control. Three replicates of 25 larvae were tested per treatment in small- (250 mL flasks (23.8 cm^2 surface area) and medium-sized (600 mL beakers (54 cm^2 surface area)) containers, but only two replicates were made in large 1000 mL beakers (86.6 cm^2 surface area).
Containers were lightly covered with paper towels. Indicated surface areas were calculated based on the inside diameter of the container at the surface level when 200 mL water was added to the container.
as §1, §2

Aedes aegypti larvae [2] = assay: Liquefied nootkatone dripped onto the water surface as larvicide (Example No. 9, Treatment 1); conditions: thirty one microliters liquefied nootkatone on 100 mL water; 25 larvae; 24 hours
Protocol: In this example, nootkatone-containing compositions were evaluated for their ability to act as a larvicide by coating a water surface. Mixed sex 3rd and 4th instar Aedes aegypti larvae (Yellow fever mosquito) were tested.
98% pure nootkatone crystals were held at 38° C. until they liquefied. Previous testing has shown that 1 mL of a 3% solution of nootkatone dissolved in ethanol, when added to 100 mL of water containing mosquito larvae, kills 100% of larvae in less than 24 hours. This experiment tested whether an equivalent amount of liquefied nootkatone alone is able to kill larvae. Thirty one microliters of liquified nootkatone crystals were dripped onto the surface of 100 mL of water in a 600 mL clean, glass beaker containing 25 mixed sex 3rd and 4th instar Aedes aegypti larvae.

[3] = system: 3rd and 4th instar larvae; assay: Duration of protection from larvae, Method 2: individual pre-treated beakers used once (Example No. 4); conditions: for larvae mortality rates: through one week of treatment
Protocol: Method 2: Clean, glass 600 mL beakers were set up as test containers (such that the surface area of water to be treated was 54 cm^2), and were treated with 1 mL of 1% or 3% nootkatone in ethanol (v/v), or 1 mL of ethanol alone, to achieve a final concentration of 0.01% or 0.03% nootkatone (v/v), respectively. Beakers were lightly covered with Kimwipes to prevent contamination, and to reduce evaporation. Beakers treated with 1 mL of 100% ethanol were used as controls. Four cohorts of 25 3rd and 4th instar larvae were added to individual beakers per day, 3-14 days after treatment with nootkatone, and mortality of larvae was recorded 24 and 48 hours after addition of larvae to beakers.
For the experimental data shown in FIGS. 5-7, the method used included addition and removal of water, and potentially, removal of nootkatone, on each succeeding day. In a new experiment, individual beakers were set up in advance, so that all beakers were used one and only one time to test the longevity of nootkatone, with the only possible loss due to evaporation.
In a separate experiment using the same setup, nootkatone-treated beakers were held for two weeks prior to addition of larvae. Due to the extended time delay, more than 50% of the original liquid volume had evaporated. To avoid having a potentially higher concentration of nootkatone than the desired 0.03%, sterile water was added to bring the total volume back to 100 mL before larval cohorts were added.

C=C(C)[C@@H]1CCC2=CC(=O)C[C@@H](C)[C@]2(C)C1 [Nootkatone, nootkatone]
larvae killed, on average (Aedes aegypti larvae [1]; 0.01% (v/v) nootkatone final, 24 hours of exposure, four replicates): 80%
mortality (Aedes aegypti larvae [1]; 0.01% (v/v) nootkatone final, after 48 hours): 100%
Dead (mortality), mean (Aedes aegypti larvae [1]; 0.03% (v/v) nootkatone final (1 mL of 3% in ethanol to 100 mL water), 54 cm^2, 24 hours post introduction): 100%
Affected, mean (Aedes aegypti larvae [1]; 0.03% (v/v) nootkatone final, 1% ethanol, 100 mL water, 54 cm^2, 24 hours post introduction): 100.0%
Morbidity (M), mean (Aedes aegypti larvae [1]; 0.03% (v/v) nootkatone final, 1% ethanol, 100 mL water, 54 cm^2, 24 hours post introduction, four replicates of 25 larvae): 0%
reduction in egg hatching versus the controls (Aedes aegypti eggs): 37%
state of hatched larvae in treated dishes (Aedes aegypti eggs): all larvae in the treated dishes were dead
average number of hatched larvae per Petri dish (Aedes aegypti eggs; cohorts of ~100 eggs, four dishes, controls 13.5, FIG. 11): 8.5 larvae
larval mortality (mosquito larvae; 5 mg nootkatone in 200 mL water, 250 mL flasks, 23.8 cm^2, 24 hours): 68%
larvae killed (mosquito larvae; 5 mg nootkatone in 200 mL water, largest containers, 86.6 cm^2, 24 hours): did not kill
larval mortality (mosquito larvae; 5 mg nootkatone in 200 mL water, medium sized containers, 54 cm^2, 24 hours): 16%
larvae killed in 24 hours (mosquito larvae; 10 mg nootkatone in 200 mL water, flasks with smallest surface area 23.8 cm^2 (about 0.42 mg/cm^2)): killed all larvae
larvae killed in 24 hours (mosquito larvae; 30 mg nootkatone in 200 mL water, any container size (23.8, 54, 86.6 cm^2)): kill all larvae
surface concentration at which nootkatone exhibits larvicidal properties (mosquito larvae; 24 hours, water surface): at least 0.09 mg/cm^2
kill rates for mosquito larvae compared with nootkatone dissolved in ethanol (Aedes aegypti larvae [2]): not as high as previous testing
larvae mortality rates ([3]; 0.01% nootkatone (v/v), twenty-four hours of exposure, FIG. 8): over 80%
killing at 24 hours ([3]; 0.01% nootkatone, larvae added 3 days after water treatment, FIG. 8): 98%
killing at 24 hours ([3]; 0.01% nootkatone, larvae added 7 days after water treatment, FIG. 8): 81%
larval mortality ([3]; 0.01% nootkatone, scored 48 hours after addition of larvae, 3-7 days after water treatment, FIG. 9): 100%
nootkatone killing duration ([3]; 0.03% concentration): at least two weeks
larvae killed within 24 hours ([3]; 0.03% nootkatone, beakers held two weeks before larvae, volume restored to 100 mL, FIG. 10): 100%
larvae mortality rates ([3]; 0.03% nootkatone, forty-eight hours of exposure, FIG. 9): 100%
larvae killed within 24 hours ([3]; 0.03% nootkatone, larvae added 3-7 days after water treatment, FIG. 8): 100%
